Experimental data reported in PubChem BioAssay (NCI).
Where “and” joins values, the source holds several entries; their conditions need not be identical. Equal values may be shown once.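 96-well plates; 48 h exposure; 5 concentrations. Endpoints by linear interpolation between flanking doses. Not reached: highest tested concentration assigned. GI50 = concentration required for 50% inhibition of growth. The concentration for full growth arrest is given as TGI.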

How the values were obtained:
Test in all cases: inhibition of tumour cell growth, NCI panel, 48 h
HOP-62 NSCLC = test system: HOP-62 NSCLC
OVCAR-3 ovarian = test system: OVCAR-3 ovarian
DU-145 prostate = test system: DU-145 prostate
PC-3 prostate = test system: PC-3 prostate
HCT-116 colon = test system: HCT-116 colon
SF-295 CNS = test system: SF-295 CNS
NCI-H23 lung = test system: NCI-H23 lung
BT-549 breast = test system: BT-549 breast
UO-31 renal = test system: UO-31 renal
SNB-75 CNS = test system: SNB-75 CNS

Structure (SMILES) | GI50 (HOP-62 NSCLC) | TGI (HOP-62 NSCLC) | GI50 (OVCAR-3 ovarian) | TGI (OVCAR-3 ovarian) | GI50 (DU-145 prostate) | TGI (DU-145 prostate) | GI50 (PC-3 prostate) | TGI (PC-3 prostate) | GI50 (HCT-116 colon) | TGI (HCT-116 colon) | GI50 (SF-295 CNS) | TGI (SF-295 CNS) | GI50 (NCI-H23 lung) | TGI (NCI-H23 lung) | GI50 (BT-549 breast) | TGI (BT-549 breast) | GI50 (UO-31 renal) | TGI (UO-31 renal) | TGI (SNB-75 CNS) | GI50 (SNB-75 CNS)
Cc1cc[c-]cc1.Fc1c[c-]c(-c2ccccn2)c(F)c1.N#CCC[PH+](CCC#N)c1ccccc1.[Pt+2] | 4.93 µM | 31.7 µM | 3.26 µM | 13.1 µM | 2.46 µM | 6.22 µM | 3.01 µM | 20.7 µM | 2.25 µM | 5.91 µM | 3.91 µM | 29.8 µM | 3.45 µM | 12.9 µM | 3.22 µM | 31.6 µM | 1.45 µM | 2.82 µM |  | 
CC1=C(C(=O)Nc2ccccc2C)C(c2ccc(N(C)C)cc2)C(C(=O)Nc2ccccc2C)=C(C)N1 |  | > 100 µM |  | > 100 µM |  |  |  |  |  | > 100 µM |  | > 100 µM |  | > 100 µM |  |  |  | > 100 µM |  | 
CC1(C)CCc2cc3c(cc2O1)OC(C)(C)C1c2c(ccc4c2CCC(C)(C)O4)OC31 (configuration not stated) |  | > 100 µM |  | > 100 µM |  |  |  |  |  | > 100 µM |  | > 100 µM |  | > 100 µM |  |  |  | > 100 µM |  | 
C(=C1\CCC/C(=C/c2ccccc2)C1=NNc1ccccc1)/c1ccccc1 |  | > 100 µM |  | > 100 µM |  |  |  |  |  | > 100 µM |  | > 100 µM |  | > 100 µM |  |  |  | > 100 µM | > 100 µM | 
CC(C)O/C=C1\C(=O)C2(SCCS2)[C@H]2CCCC[C@@H]12 |  | > 100 µM |  |  |  |  |  |  |  | > 100 µM |  |  |  |  |  |  |  | > 100 µM | > 100 µM | 
Cc1cc2nc3ccc(N=Nc4ccc(N(C)C)cc4)cc3n(-c3ccccc3)c-2cc1=N | 0.0406 µM | 1.75 µM | 0.0121 µM | 0.039 µM | 0.0208 µM | 0.123 µM | 0.0143 µM | 0.183 µM | 0.0177 µM | 0.116 µM | 0.0154 µM and 0.0314 µM |  | 0.0253 µM | 0.418 µM |  |  | 0.0333 µM | 0.82 µM | 1.25 µM | 0.05 µM
CSc1nc(Cl)c(Br)c(Nc2c[nH]c(=O)[nH]c2=O)n1 |  | 53.5 µM |  | 40.7 µM |  | 49.9 µM |  | 45.8 µM |  | 29.3 µM |  | 42.6 µM |  | 35.7 µM |  |  |  | 37.5 µM | 42.7 µM | 
Cc1cc(N(CCCNc2ccnc3cc(Cl)ccc23)Cc2cccs2)nc(Cl)n1 | 11.8 µM | 29.6 µM | 6.43 µM | 21.4 µM | 7.9 µM | 23.1 µM | 3.32 µM | 22.9 µM | 1.08 µM | 12.8 µM |  |  | 1.3 µM | 16.7 µM | 3.69 µM | 15.7 µM | 0.986 µM | 7.73 µM | 18 µM | 2.82 µM
O=C1c2cnccc2Cc2cccc3c2N1c1ccccc1S3 |  | 57.2 µM |  | 44.5 µM |  |  |  |  |  | 33.8 µM |  | 63.2 µM |  | 52.7 µM |  |  |  |  | 48.5 µM | 
CC(=O)Nc1ccc(-c2nnc(SCC(=O)Nc3ccccc3[N+](=O)[O-])o2)cc1 |  | > 100 µM |  | > 100 µM |  |  |  |  |  | > 100 µM |  | > 100 µM |  | > 100 µM |  |  |  | > 100 µM | > 100 µM | 
CC1SC2=NC3=C(c4ccccc4C3=O)C(c3ccc(Br)cc3)N2C1=O (configuration not stated) |  | > 100 µM |  | > 100 µM |  |  |  |  |  |  |  | > 100 µM |  | > 100 µM |  |  |  | > 100 µM | 96.9 µM | 
N/C(=N\OC(=O)NC(Cl)=C(Cl)Cl)c1cc(C(F)(F)F)cc(C(F)(F)F)c1 |  | 34.2 µM |  | 28.6 µM |  | 27 µM |  | 38.9 µM |  | 35.5 µM |  | 34.8 µM |  | > 100 µM |  | 41.2 µM |  | 33.9 µM |  | 
Cn1cc2ccccc2c1-c1nc(F)nc(Oc2ccc3c(c2)CC[C@@H]2C3CC[C@]3(C)C(O)CCC23)n1 (some centres not stated) |  | 33 µM |  | 31.8 µM |  |  |  |  |  | 35.8 µM |  | 30.2 µM |  |  |  |  |  | 63.6 µM | 28.6 µM | 
O=C1C=C(N2CC2)c2ccccc2C1=O | 1.74 µM | 3.13 µM | 1.77 µM | 3.27 µM | 1.34 µM | 2.66 µM |  |  | 1.47 µM | 2.9 µM | 1.63 µM | 3.12 µM | 1.84 µM | 7.17 µM | 1.4 µM | 2.73 µM | 1.51 µM | 2.87 µM | 3.12 µM | 1.57 µM
CSc1nc2c(nc(N)n2C2OCC(O)C(O)C2O)c(=O)[nH]1 (configuration not stated) |  | > 100 µM |  | > 100 µM |  |  |  |  |  | > 100 µM |  | > 100 µM |  | > 100 µM |  |  |  | > 100 µM | > 100 µM | 
O=C1C2Cc3ccccc3CN2C(=O)N1CN1CCN(CN2C(=O)C3Cc4ccccc4CN3C2=O)CC1 (configuration not stated) |  | > 100 µM |  | > 100 µM |  |  |  |  |  |  |  | > 100 µM |  | > 100 µM |  |  |  | > 100 µM | > 100 µM | 
Cc1cn(C2C=CC(=O)C(C)O2)c(=O)[nH]c1=O (configuration not stated) |  | 43.2 µM |  | 31.4 µM |  |  |  |  |  | 24.6 µM |  | 31.3 µM |  | 37.1 µM |  |  |  | 27.7 µM | 29.1 µM | 
COc1ccc(CNc2nc3ccccc3nc2-c2cccs2)cc1OC |  | > 100 µM |  | > 100 µM |  |  |  |  |  | > 100 µM |  | > 100 µM |  | > 100 µM |  |  |  | > 100 µM |  | 
O=C(N/C(=C\c1ccc([N+](=O)[O-])cc1)c1nc2[nH]c(=S)[nH]c(=O)c2[nH]1)c1ccccc1 |  |  |  | > 100 µM |  |  |  |  |  |  |  | > 100 µM |  | > 100 µM |  |  |  | > 100 µM |  | 
COc1cc(C)c(C(=O)/C=C/c2cc(OC)c(O)c(OC)c2)cc1O |  | 69.3 µM |  | 91.1 µM |  |  |  |  |  | 27 µM |  | > 100 µM |  | 36.4 µM |  |  |  | 57.5 µM | > 100 µM | 
Cc1c(N2C(=O)/C(=C\c3ccc(O)cc3)N=C2c2ccccc2)c(=O)n(-c2ccccc2)n1C | > 100 µM | > 100 µM | > 100 µM | > 100 µM | > 100 µM | > 100 µM | > 100 µM | > 100 µM | > 100 µM | > 100 µM | > 100 µM | > 100 µM | > 100 µM | > 100 µM |  |  | > 100 µM | > 100 µM | > 100 µM | > 100 µM
